Source: paper PMC5696490, “Modelling foetal exposure to maternal smoking using hepatoblasts from pluripotent stem cells” (Archives of Toxicology, 2017)

Tests used:
Caspase 3/7 [1] = test: Caspase 3/7 activity (pGlo) in donor one hESC-derived hepatocytes; type: cell-based, human; details: concentration of peak caspase 3/7 activity, 8 days exposure
Protocol: (§1) H9 and Man12 human embryonic stem cells (hESCs) identity was confirmed using short tandem repeat typing. hESCs were cultured and differentiated as previously described (Cameron et al. [2015]). Maintenance of hESCs was performed on pre-coated laminin 521 (Biolaminin) in mTeSR1 ([…] Technologies) in a humidified 37 °C, 5% CO2 incubator. For differentiation, hESCs were plated onto a pre-coated blend of laminins 521 and 111 (at a 1:3 ratio). Differentiation was initiated at 40% confluence by replacing serum-free medium with endoderm differentiation medium: RPMI 1640 containing 1× B27 (Life Technologies), 100 ng/mL Activin A (PeproTech), and 50 ng/mL Wnt3a (R&D Systems). The medium was changed every 24 h for 72 h. On day 3, endoderm differentiation medium was replaced with hepatoblast differentiation medium, and this was renewed every second day for a further 5 days. The medium consisted of knockout (KO)-DMEM (Life Technologies), Serum replacement (Life Technologies), 0.5% Glutamax (Life Technologies), 1% non-essential amino acids (Life Technologies), 0.2% β-mercaptoethanol (Life Technologies), and 1% DMSO (Sigma). On day 8, differentiating cells were cultured in the hepatocyte maturation medium HepatoZYME (Life Technologies) containing 1% Glutamax (Life Technologies), supplemented with 10 ng/mL hepatocyte growth factor (PeproTech) and 20 ng/mL oncostatin M (PeproTech). On day 10 maturation medium was replaced with HepatoZYME supplemented with and without smoking derivatives (Sigma-Aldrich) for a further 8 days, with media replaced every 48 h.
(§2) Cell health was assessed measuring ATP production and Caspase 3/7 activity at Day 18 employing pGlo technology (Promega) in accordance with the manufacturer’s instructions. Levels of expression of both markers were expressed as percentage of relative light units (RLUs) per milliliter of medium and normalised to the vehicle control. Levels of significance were measured by Student’s t test. The experiments are representative of five biological replicates.
(§3) Hepatocyte specification and maturation was performed in male and female hESCs lines in the presence or absence to smoking components. Cotinine at a concentration range of 1 to 300 nM, chrysene at a concentration range of 10 nM to 50 μM, fluorene at a concentration range of 10 nM to 100 μM, naphthalene at a concentration range of 10nm to 1 mM and phenanthrene, at a concentration range of 10 nM to 500 μM were used. Following 8 days exposure, cell health was determined by ATP production and caspase activity. Following this cell function was determined measuring CYP P450 3A and 1A2 activity. In order to measure the effectiveness of each component of cigarette smoke to inhibiting activity we used the half maximal inhibitory concentration (IC50).

Caspase 3/7 [2] = test: Caspase 3/7 activity (pGlo) in donor two hESC-derived hepatocytes; type: cell-based, human; details: concentration of peak caspase 3/7 activity, 8 days exposure
Protocol: as §1, §2, §3

CYP3A = CYP3A activity (pGlo) in donor two hESC-derived hepatocytes; details: human two
Protocol: as §1
CYP3A and CYP1A2 activity was measured in hepatocytes at Day 18 using pGlo technology (Promega) in accordance with the manufacturer’s instructions. CYP activity was expressed as either relative light units (RLUs) per milliliter of medium per milligram of protein (determined by the BCA assay, Pierce), or as a percentage of CYP activity normalised to the vehicle control. Levels of significance were measured by Student’s t test. The experiments are representative of five biological replicates.
as §3

CYP1A2 = target: T1, CYP1A2 (Homo sapiens, UniProt P05177); test: CYP1A2 activity (pGlo) in donor one hESC-derived hepatocytes; type: cell-based; details: female hepatocytes, 8 days exposure
T1 sequence (P05177 2-516): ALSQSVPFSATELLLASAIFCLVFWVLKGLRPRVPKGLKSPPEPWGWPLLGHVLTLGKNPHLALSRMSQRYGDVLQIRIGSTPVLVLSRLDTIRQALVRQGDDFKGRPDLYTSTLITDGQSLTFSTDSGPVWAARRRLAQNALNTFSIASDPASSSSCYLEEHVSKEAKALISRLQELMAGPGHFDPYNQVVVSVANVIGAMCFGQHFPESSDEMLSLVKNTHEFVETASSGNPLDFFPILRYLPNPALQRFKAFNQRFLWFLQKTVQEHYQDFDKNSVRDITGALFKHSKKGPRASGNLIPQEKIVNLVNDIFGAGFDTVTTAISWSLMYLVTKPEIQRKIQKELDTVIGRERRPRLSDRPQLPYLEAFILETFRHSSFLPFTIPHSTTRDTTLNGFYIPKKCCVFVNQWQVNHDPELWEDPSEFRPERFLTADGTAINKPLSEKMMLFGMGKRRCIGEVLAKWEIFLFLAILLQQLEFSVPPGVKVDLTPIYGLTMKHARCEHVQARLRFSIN
Excerpt: The experiments are representative of five biological replicates.

Row | SMILES | Caspase 3/7 peak activity Female (Caspase 3/7 [1]) | Caspase 3/7 peak activity Male (Caspase 3/7 [2]) | IC50 at 8 days (CYP3A) | IC50 CYP1A2 person one (CYP1A2) | IC50 CYP1A2 person one (CYP1A2; listed as naphthalene)
1 | c1ccc2c(c1)ccc1ccccc12 [Phenanthrene] | >500 µM | 10 µM | 58 µM |  | 
2 | c1ccc2c(c1)Cc1ccccc1-2 [Fluorene] | >100 µM | 100 µM | 25 µM |  | 
3 | c1ccc2ccccc2c1 [Naphthalene] | 50 µM | 1000 µM | 68 µM | Induced activity | induced CYP1A2 activity
4 | CN1C(=O)CC[C@H]1c1cccnc1 [Cotinine] | 0.1 µM | 0.1 µM | 0.05 µM |  | 
5 | c1ccc2c(c1)ccc1c3ccccc3ccc21 [Chrysene] | 25 µM | 5 µM | 10 µM |  | 
